Active and inactive are the calls of the source. The rule behind the calls is not given here.
What was measured:
K562 [1] = test: cells; conditions: Homo sapiens, K562, 48 h
HepG2 = test: cells; conditions: Homo sapiens, HepG2, 48 h
MCF7 = test: cells; conditions: Homo sapiens, MCF7, 48 h
[2] = molecular target: Proto-oncogene tyrosine-protein kinase Src (Homo sapiens) (UniProt P12931); test: Inhibition of SRC at 50 uM after 1 hr
[3] = molecular target: Proto-oncogene tyrosine-protein kinase Src (Homo sapiens) (UniProt P12931); test: Inhibition of SRC in human K562 cells assessed as reduction in activated ERK1/2 levels at 10 uM by Western blot analysis; type: cell-based; conditions: TDE = time-dependent effect
[4] = molecular target: DNA topoisomerase 2-alpha (Homo sapiens) (UniProt P11388); test: Inhibition of human topoisomerase 2 at 1 to 50 uM for 40 mins using ethidium bromide by decatenation assay
DNA topoisomerase 2-alpha (Homo sapiens), sequence (P11388 whole entry): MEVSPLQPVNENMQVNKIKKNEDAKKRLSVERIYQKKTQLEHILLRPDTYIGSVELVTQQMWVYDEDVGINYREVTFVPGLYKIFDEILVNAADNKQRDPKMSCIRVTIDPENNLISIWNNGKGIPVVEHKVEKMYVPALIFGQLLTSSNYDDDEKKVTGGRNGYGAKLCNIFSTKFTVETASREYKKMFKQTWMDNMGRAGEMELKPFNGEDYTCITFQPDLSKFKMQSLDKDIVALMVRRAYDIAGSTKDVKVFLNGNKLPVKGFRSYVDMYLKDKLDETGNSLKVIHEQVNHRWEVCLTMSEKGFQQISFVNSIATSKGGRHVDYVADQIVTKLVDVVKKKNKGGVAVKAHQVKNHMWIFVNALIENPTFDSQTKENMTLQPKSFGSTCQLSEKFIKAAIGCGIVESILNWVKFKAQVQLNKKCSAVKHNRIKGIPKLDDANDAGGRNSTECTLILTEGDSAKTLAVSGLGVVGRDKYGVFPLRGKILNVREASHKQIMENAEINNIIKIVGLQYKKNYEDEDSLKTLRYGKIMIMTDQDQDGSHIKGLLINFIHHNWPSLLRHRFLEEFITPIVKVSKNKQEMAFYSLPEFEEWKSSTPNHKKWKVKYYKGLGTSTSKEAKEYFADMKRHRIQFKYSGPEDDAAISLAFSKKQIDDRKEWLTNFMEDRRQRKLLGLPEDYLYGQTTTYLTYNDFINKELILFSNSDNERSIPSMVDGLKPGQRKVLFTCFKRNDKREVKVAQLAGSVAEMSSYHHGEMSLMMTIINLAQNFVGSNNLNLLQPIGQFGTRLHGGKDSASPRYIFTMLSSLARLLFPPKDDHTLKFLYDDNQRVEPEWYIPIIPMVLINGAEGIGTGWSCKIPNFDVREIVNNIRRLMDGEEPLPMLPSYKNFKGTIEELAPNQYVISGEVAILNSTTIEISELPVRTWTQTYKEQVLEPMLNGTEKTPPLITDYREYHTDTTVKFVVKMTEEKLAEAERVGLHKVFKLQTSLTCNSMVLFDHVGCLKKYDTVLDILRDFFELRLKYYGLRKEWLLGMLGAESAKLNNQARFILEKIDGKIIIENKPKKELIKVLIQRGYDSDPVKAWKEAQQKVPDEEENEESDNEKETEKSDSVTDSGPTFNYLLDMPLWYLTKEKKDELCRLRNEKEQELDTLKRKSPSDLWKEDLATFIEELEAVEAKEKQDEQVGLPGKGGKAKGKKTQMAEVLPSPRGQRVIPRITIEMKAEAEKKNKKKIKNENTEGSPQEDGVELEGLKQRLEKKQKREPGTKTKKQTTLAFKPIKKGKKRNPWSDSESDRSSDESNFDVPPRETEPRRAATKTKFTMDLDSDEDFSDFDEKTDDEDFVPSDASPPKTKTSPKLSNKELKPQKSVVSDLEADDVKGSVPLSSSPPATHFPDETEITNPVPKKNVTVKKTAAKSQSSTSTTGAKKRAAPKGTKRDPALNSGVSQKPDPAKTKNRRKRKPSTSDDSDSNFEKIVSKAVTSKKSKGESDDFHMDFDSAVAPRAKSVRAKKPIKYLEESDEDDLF

[5] = molecular target: Vascular endothelial growth factor receptor 2 (Homo sapiens) (UniProt P35968); test: Inhibition of VEGFR2 in human K562 cells assessed as reduction in activated ERK1/2 levels at 10 uM by Western blot analysis; type: cell-based
Vascular endothelial growth factor receptor 2 (Homo sapiens), sequence (P35968 whole entry): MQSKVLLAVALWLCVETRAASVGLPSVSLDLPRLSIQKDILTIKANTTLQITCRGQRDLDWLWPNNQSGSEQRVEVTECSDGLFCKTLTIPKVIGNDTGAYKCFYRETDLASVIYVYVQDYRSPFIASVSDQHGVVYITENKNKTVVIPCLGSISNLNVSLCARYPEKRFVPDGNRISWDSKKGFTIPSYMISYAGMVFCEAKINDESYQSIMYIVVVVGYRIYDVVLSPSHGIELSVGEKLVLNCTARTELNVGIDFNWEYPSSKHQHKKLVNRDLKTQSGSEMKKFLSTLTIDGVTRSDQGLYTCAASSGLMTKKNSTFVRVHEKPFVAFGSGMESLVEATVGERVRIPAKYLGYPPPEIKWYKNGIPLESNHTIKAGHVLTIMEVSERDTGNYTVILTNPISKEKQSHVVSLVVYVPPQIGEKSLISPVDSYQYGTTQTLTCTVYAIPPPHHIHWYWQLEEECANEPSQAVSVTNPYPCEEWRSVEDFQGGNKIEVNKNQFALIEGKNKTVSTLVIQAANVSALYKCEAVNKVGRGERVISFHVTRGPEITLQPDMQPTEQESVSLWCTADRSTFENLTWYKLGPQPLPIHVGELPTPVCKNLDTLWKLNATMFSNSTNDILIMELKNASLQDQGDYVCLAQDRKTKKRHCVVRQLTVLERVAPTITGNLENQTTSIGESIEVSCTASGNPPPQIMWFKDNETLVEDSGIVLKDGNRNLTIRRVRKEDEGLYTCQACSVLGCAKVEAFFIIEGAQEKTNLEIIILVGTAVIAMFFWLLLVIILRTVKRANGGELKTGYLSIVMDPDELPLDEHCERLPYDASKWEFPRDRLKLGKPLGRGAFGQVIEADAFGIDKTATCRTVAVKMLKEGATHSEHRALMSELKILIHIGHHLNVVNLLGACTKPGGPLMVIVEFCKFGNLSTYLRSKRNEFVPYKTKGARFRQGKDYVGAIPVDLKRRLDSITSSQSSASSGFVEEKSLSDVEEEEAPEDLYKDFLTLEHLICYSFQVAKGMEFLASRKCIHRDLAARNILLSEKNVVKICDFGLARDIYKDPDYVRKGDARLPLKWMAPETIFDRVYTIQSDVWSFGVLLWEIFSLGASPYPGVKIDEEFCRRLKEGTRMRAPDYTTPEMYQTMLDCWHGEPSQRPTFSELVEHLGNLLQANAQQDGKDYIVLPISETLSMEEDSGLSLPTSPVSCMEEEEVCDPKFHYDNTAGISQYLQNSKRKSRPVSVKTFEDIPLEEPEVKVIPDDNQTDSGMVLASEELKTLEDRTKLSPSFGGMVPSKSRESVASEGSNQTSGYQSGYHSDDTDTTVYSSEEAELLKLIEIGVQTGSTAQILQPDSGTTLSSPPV

[6] = molecular target: Vascular endothelial growth factor receptor 2 (Homo sapiens) (UniProt P35968); test: Inhibition of VEGFR2 at 50 uM after 1 hr
K562 [7] = test: Ratio of imatinib IC50 to compound IC50 for human K562 cells after 48 hrs by MTT assay; type: functional
Malme-3M = test: cells; conditions: Homo sapiens
Description: Growth inhibition of MALME-3M cells

SK-MEL-28 = test: Growth inhibition of SK-MEL-28 cells; conditions: Homo sapiens
[8] = Growth inhibition of A375M cells; conditions: Homo sapiens

Proto-oncogene tyrosine-protein kinase Src (Homo sapiens), sequence (P12931 2-536 limits assumed): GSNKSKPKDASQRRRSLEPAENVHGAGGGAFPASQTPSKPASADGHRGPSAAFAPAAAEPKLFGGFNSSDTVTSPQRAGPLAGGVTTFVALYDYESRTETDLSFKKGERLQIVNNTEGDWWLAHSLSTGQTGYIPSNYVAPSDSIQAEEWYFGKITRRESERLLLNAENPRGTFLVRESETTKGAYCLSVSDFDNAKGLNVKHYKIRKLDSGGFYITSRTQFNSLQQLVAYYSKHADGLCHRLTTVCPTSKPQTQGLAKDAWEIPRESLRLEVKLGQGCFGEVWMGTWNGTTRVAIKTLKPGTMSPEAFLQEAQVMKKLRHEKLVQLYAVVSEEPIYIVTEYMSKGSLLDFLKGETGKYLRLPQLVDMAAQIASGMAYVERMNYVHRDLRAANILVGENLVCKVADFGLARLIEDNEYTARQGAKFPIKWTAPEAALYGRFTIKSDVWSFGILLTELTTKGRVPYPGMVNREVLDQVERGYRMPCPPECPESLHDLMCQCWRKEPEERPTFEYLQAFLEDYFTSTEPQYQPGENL

Compound	IC50 (K562 [1]) [µM]	IC50 (HepG2) [µM]	IC50 (MCF7) [µM]	further results
COc1ccc2nc3cc(Cl)ccc3c(Nc3ccc(C(F)(F)F)cc3)c2c1	10.8	> 50	> 50	
COc1ccc2nc3cc(Cl)ccc3c(Nc3cccnc3N)c2c1	11.7	10.6	23.2	
COc1cc2c(c(OC)c1OC)-c1ccc(OC)c(=O)cc1[C@@H](NC(C)=O)CC2 [COLCHICINE]		1.9	1.9	
CN[C@@H]1C[C@H]2O[C@@](C)([C@@H]1OC)n1c3ccccc3c3c4c(c5c6ccccc6n2c5c31)C(=O)NC4				inhibition [2]: 99.4%
COc1ccc2nc3cc(Cl)ccc3c(Nc3ccc(OC(F)(F)F)cc3)c2c1	9.7	10.2	18.9	
COc1ccc2nc3cc(Cl)ccc3c(Nc3ccccc3Cl)c2c1	23.8	30.2	> 50	
COc1ccc2nc3cc(Cl)ccc3c(Nc3cccc(N)n3)c2c1	12	32.7	17.6	inhibition [2]: 6.12%; inhibition [6]: 3.77%
COc1ccc2nc3cc(Cl)ccc3c(Nc3ccc(C(=O)O)c(O)c3)c2c1	18.7	> 50	> 50	inhibition [2]: 2.8%; inhibition [4]: inactive; inhibition [6]: 5.4%
Cn1c(Nc2ccc(C(F)(F)F)cc2)nc2cc(Oc3ccnc(-c4ncc(C(F)(F)F)[nH]4)c3)ccc21 [RAF-265]				IC50 (Malme-3M): 0.14 µM; IC50 (SK-MEL-28): 0.14 µM; IC50 [8]: 0.14 µM
COc1ccc2nc3cc(Cl)ccc3c(Nc3cccc(NC(C)=O)c3)c2c1	21.3	36.8	> 50	
COc1ccc2nc3cc(Cl)ccc3c(Nc3ccccc3F)c2c1	13.5	46.1	> 50	
COc1ccc2nc3cc(Cl)ccc3c(Nc3cc(OC)c(OC)c(OC)c3)c2c1	31	16.8	> 50	
CCOc1ccccc1Nc1c2ccc(Cl)cc2nc2ccc(OC)cc12	9	27.9	> 50	

Further compounds by falling IC50 (K562 [1]), results first:

IC50 (K562 [1]) [µM]	IC50 (HepG2) [µM]	IC50 (MCF7) [µM]	Compound	further results
7.7	11	23.2	COc1ccc2nc3cc(Cl)ccc3c(Nc3ccc(N)cc3)c2c1	
7.3	4.1	> 50	COc1ccc2nc3cc(Cl)ccc3c(Nc3ccncc3)c2c1	
7	6	9.3	COc1ccc2nc3cc(Cl)ccc3c(NCCN)c2c1	
5.5	8.8	19.9	COc1ccc2nc3cc(Cl)ccc3c(Nc3ccc(C)cc3)c2c1	
5.5	9.6	13.2	COc1ccc2nc3cc(Cl)ccc3c(Nc3cccc(O)c3)c2c1	
5.4	> 50	> 50	COc1ccc2nc3cc(Cl)ccc3c(Nc3ccccc3OC)c2c1	
5.4			Cc1ccc(NC(=O)c2ccc(CN3CCN(C)CC3)cc2)cc1Nc1nccc(-c2cccnc2)n1 [IMATINIB]	
5	4.2	23.8	COc1ccc2nc3cc(Cl)ccc3c(NCc3ccccc3OC)c2c1	inhibition [2]: 8.02%; inhibition [3]: tde; inhibition [4]: inactive; inhibition [5]: Active; inhibition [6]: 44%
4.9	11.4	> 50	COc1ccc2nc3cc(Cl)ccc3c(Nc3ccccc3O)c2c1	
3.2	7.4	41.6	CCOc1ccc(Nc2c3ccc(Cl)cc3nc3ccc(OC)cc23)cc1	
2.7	14.9	> 50	COc1cccc(Nc2c3ccc(Cl)cc3nc3ccc(OC)cc23)c1	
2.2	6.3	> 50	COc1ccc(Nc2c3ccc(Cl)cc3nc3ccc(OC)cc23)cc1	Ratio IC50 (K562 [7]): 2.5
